Tests used:
[1] = biological target: T1, Prostaglandin G/H synthase 1 (Ovis aries) (UniProt P05979); experiment: Inhibition of ovine COX1 assessed as inhibition of PGF2a formation at 1 uM after 20 mins by Ellman's method
T1 sequence (whole entry): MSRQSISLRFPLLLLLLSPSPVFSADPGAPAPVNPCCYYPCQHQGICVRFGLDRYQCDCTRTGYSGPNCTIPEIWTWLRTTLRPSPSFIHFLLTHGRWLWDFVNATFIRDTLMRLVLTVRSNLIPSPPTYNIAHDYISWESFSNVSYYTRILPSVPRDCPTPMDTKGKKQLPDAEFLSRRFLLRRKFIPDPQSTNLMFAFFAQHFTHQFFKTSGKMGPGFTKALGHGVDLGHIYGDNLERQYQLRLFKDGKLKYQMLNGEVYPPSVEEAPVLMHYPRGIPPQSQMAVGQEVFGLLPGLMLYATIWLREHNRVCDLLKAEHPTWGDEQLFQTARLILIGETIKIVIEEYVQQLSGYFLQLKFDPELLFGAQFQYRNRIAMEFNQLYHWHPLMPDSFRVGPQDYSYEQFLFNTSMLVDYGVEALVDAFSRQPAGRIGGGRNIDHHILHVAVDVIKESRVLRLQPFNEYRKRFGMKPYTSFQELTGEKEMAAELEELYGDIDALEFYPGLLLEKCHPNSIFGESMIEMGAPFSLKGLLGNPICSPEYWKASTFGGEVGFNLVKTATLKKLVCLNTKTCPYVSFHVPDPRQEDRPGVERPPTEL

[2] = biological target: T1, Prostaglandin G/H synthase 1 (Ovis aries); experiment: Inhibition of ovine COX1 assessed as inhibition of PGF2a formation at 10 uM after 20 mins by Ellman's method
[3] = biological target: T1, Prostaglandin G/H synthase 1 (Ovis aries); experiment: Inhibition of ovine COX1 assessed as inhibition of PGF2a formation at 100 nM after 20 mins by Ellman's method
[4] = biological target: T2, Prostaglandin G/H synthase 1 (Ovis aries, UniProt P05979); experiment: Inhibition of ovine COX1 assessed as inhibition of PGF2a formation after 20 mins by Ellman's method
T2 sequence (P05979 whole entry): T1 sequence (whole entry)

[5] = biological target: T1, Prostaglandin G/H synthase 1 (Ovis aries); experiment: Inhibition of ovine COX1 assessed as inhibition of PGF2a formation at 100 uM after 20 mins by Ellman's method
[6] = biological target: T1, Prostaglandin G/H synthase 1 (Ovis aries); experiment: Inhibition of ovine COX1 assessed as inhibition of PGF2a formation at 0.01 uM after 20 mins by Ellman's method
[7] = Growth inhibition of human NCI60 cells after 48 hrs by sulforhodamine B assay; type: functional; details: NCI60, 48 h

Row | inhibition [1] [%] | inhibition [2] [%] | inhibition [3] [%] | IC50 [4] [nM] | inhibition [5] [%] | inhibition [6] [%] | SMILES | GI50 [7] [nM] | CC50 ([7]; read-out: LC50 (the source's name)) [nM]
1 | 65 | 94 | 48 | 209 |  |  | N#CSC[C@@H]1C[C@@](O)(c2ccccc2)C[C@H](c2ccc(Br)cc2)O1 (relative stereo) |  | 
2 | 16 | 38 |  | 13900 | 52 |  | CCSC[C@@H]1C[C@](O)(c2ccccc2)[C@@H](c2ccccc2)[C@H](c2ccccc2)O1 (relative stereo) |  | 
3 | 24 | 27 |  | 64000 | 50 |  | N#CSC[C@@H]1C[C@](O)(c2ccccc2)[C@@H](c2ccccc2)[C@H](c2ccccc2)O1 (relative stereo) |  | 
4 | 60 | 94 | 45 | 413 |  |  | CCSC[C@@H]1C[C@@](O)(c2ccccc2)C[C@H](c2ccc(Cl)cc2)O1 (relative stereo) |  | 
5 | 58 | 94 | 40 | 562 |  |  | CCSC[C@@H]1C[C@@](O)(c2ccccc2)C[C@H](c2ccc(Br)cc2)O1 (relative stereo) |  | 
6 | 28 | 29 |  | 13000 | 50 |  | N#CSC[C@@H]1C[C@](O)(c2ccccc2)[C@@H](c2ccccc2)[C@H](c2ccc(Br)cc2)O1 (relative stereo) |  | 
7 | 39 | 94 | 26 | 2790 |  |  | N#CSC[C@@H]1C[C@@](O)(c2ccccc2)C[C@H](c2ccccc2)O1 (relative stereo) |  | 
8 | 51 | 55 | 40 | 347 | 62 | 32 | CCSC[C@@H]1C[C@@](O)(c2ccccc2)C[C@H](C)O1 (relative stereo) |  | 
9 | 55 | 60 | 38 | 368 | 65 | 32 | C[C@H]1C[C@](O)(c2ccccc2)C[C@@H](CSC#N)O1 (relative stereo) |  | 
10 | 37 | 94 | 25 | 2930 |  |  | CCSC[C@@H]1C[C@@](O)(c2ccccc2)C[C@H](c2ccccc2)O1 (relative stereo) |  | 
11 | 41 | 38 |  | 23800 | 60 |  | CCSC[C@@H]1C[C@](O)(c2ccccc2)[C@@H](c2ccccc2)[C@H](c2ccc(Br)cc2)O1 (relative stereo) |  | 
12 |  |  |  |  |  |  | Cc1ccc(-c2cc(C(F)(F)F)nn2-c2ccc(S(N)(=O)=O)cc2)cc1 [CELECOXIB] | 17500 | 63300
